From ChEMBL document CHEMBL1130462, “New enone derivatives of oleanolic acid and ursolic acid as inhibitors of nitric oxide production in mouse macrophages” (Bioorg Med Chem Lett, 1997) come the findings set out here.

The species entered for one experiment is Mus musculus. Description: Compound was measured for its inhibitory activity on IFN-gamma-induced nitric oxide production in mouse macrophage. Format: functional.
For `C[C@]12CCC(=O)C=C1CCC1[C@@H]2[C@@H](O)C[C@@]2(C)[C@H]1CC[C@]2(O)C(=O)CO` (single isomer, unassigned) [HYDROCORTISONE], inhibition was half-maximal at 0.015 µM (IC50).

The species named for a further experiment is Mus musculus. Description: Compound was measured for its inhibitory activity on IFN-gamma-induced nitric oxide production in mouse macrophage; toxic at 5-10 uM. In kind it is functional.
As to `C[C@@H]1CC[C@]2(C(=O)O)CC[C@]3(C)C(=CC[C@@H]4[C@@]5(C)CC[C@H](O)C(C)(C)[C@@H]5CC[C@]43C)C2[C@H]1C` (stereo partly drawn), the IC50 (commonly the concentration that gives 50% inhibition) is recorded as “toxic at 5-10 uM”.

For another experiment, the species on record is Mus musculus. Description: Inhibitory activity on IFN-gamma-induced nitric oxide production in mouse macrophage at a concentration of 0.1-40 uM. Format: functional.
Take `CC1(C)CC[C@]2(C(=O)O)CC[C@]3(C)[C@H](C(=O)C=C4[C@@]5(C)C=CC(=O)C(C)(C)[C@@H]5CC[C@]43C)[C@@H]2C1`: the IC50 came out at 0.9 µM.

Compound `CC1(C)CC[C@]2(C(=O)O)CC[C@]3(C)C(=C2C1)C=C[C@@H]1[C@@]2(C)C=CC(=O)C(C)(C)[C@@H]2CC[C@]13C` returned an IC50 of 9.7 µM. On the same count and under the same terms, in the case of `CC1(C)CC[C@]2(C(=O)O)CC[C@]3(C)C(C(=O)C[C@@H]4[C@@]5(C)C=CC(=O)C(C)(C)[C@@H]5CC[C@]43C)C2C1` (stereo partly drawn) it was 3.3 µM; in that of `CC1(C)CC[C@]2(C(=O)O)CC[C@]3(C)C(CC=C4[C@@]5(C)C=CC(=O)C(C)(C)[C@@H]5CC[C@]43C)C2C1` (stereo partly drawn), 5.2 µM. The same measure, in the same setting: in the case of `CC1(C)CC[C@]2(C(=O)O)CC[C@]3(C)C(=CC[C@@H]4[C@@]5(C)C=C(O)C(=O)C(C)(C)[C@@H]5CC[C@]43C)C2C1` (stereo partly drawn) it was 26.5 µM; in that of `CC1(C)CC[C@]2(C(=O)O)CC[C@]3(C)C(CC4OC45[C@@]4(C)C=CC(=O)C(C)(C)[C@@H]4CC[C@]53C)C2C1` (stereo partly drawn), 35.5 µM; in that of `CC1(C)CC[C@]2(C(=O)O)CC[C@]3(C)C(=CC(=O)[C@@H]4[C@@]5(C)C=CC(=O)C(C)(C)[C@@H]5CC[C@]43C)C2C1` (stereo partly drawn), 1.8 µM.

`C[C@@H]1CC[C@]2(C(=O)O)CC[C@]3(C)C(=CC[C@@H]4[C@@]5(C)C=CC(=O)C(C)(C)[C@@H]5CC[C@]43C)C2[C@H]1C` (stereo partly drawn): the IC50 worked out at 17.6 µM. Still for that read-out and setting: next, `CC1(C)CC[C@]2(C(=O)O)CC[C@]3(C)C(=CC[C@@H]4[C@@]5(C)C=CC(=O)C(C)(C)[C@@H]5CC[C@]43C)C2C1` (stereo partly drawn): 6 µM; `CC1(C)CC[C@]2(C(=O)O)CC[C@]3(C)C(=C2C1)CC(=O)[C@@H]1[C@@]2(C)C=CC(=O)C(C)(C)[C@@H]2CC[C@]13C`: 2.6 µM; `COC1=C[C@]2(C)[C@H]3CC=C4C5CC(C)(C)CC[C@]5(C(=O)O)CC[C@@]4(C)[C@]3(C)CC[C@H]2C(C)(C)C1=O` (stereo partly drawn): 30 µM. For `C[C@@H]1CC[C@]2(C(=O)O)CC[C@]3(C)C(=CC(=O)[C@@H]4[C@@]5(C)C=CC(=O)C(C)(C)[C@@H]5CC[C@]43C)C2[C@H]1C` (stereo partly drawn), the midpoint of inhibition, the IC50, lay at 5.1 µM.

As for `COC(=O)[C@]12CCC(C)(C)CC1C1=CC[C@@H]3[C@@]4(C)C=CC(=O)C(C)(C)[C@@H]4CC[C@@]3(C)[C@]1(C)CC2` (stereo partly drawn), the midpoint of inhibition, the IC50, lay at 40 µM.

Consider `CC1(C)CC[C@]2(C(=O)O)CC[C@]3(C)C(CC[C@@H]4[C@@]5(C)C=CC(=O)C(C)(C)[C@@H]5CC[C@]43C)C2C1` (stereo partly drawn), for which the midpoint of inhibition, the IC50, lay at 8.5 µM. `CC1(C)CC[C@]2(C(=O)O)CC[C@]3(C)C(=CC[C@@H]4[C@@]5(C)CC[C@H](O)C(C)(C)[C@@H]5CC[C@]43C)[C@@H]2C1` [OLEANOLIC_ACID] yielded an IC50 of 40 µM. The compound `CC1(C)CC[C@]2(C(=O)O)CC[C@]3(C)C(=CC[C@@H]4[C@@]5(C)CCC(=O)C(C)(C)[C@@H]5CC[C@]43C)[C@@H]2C1` [OLEANONIC ACID] yielded an IC50 of 37.1 µM.
